# Target: skeletal myofibrils (myosin ATPase)
# Test: Skeletal Myofibril ATPase Assay
# Type: biochemical
# In short: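 Skeletal myofibril ATPase activity was measured via PK-LDH coupling, following NADH loss at 340 nm every 1.5-2 min for 45 min in PIPES/CaCl2/EGTA pCa buffer, pH 7.0. Max−Min slopes were normalised to 1% DMSO vehicle (100%) and fit to a four-parameter logistic (bottom ≥0) for IC50.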
Compound,IC50 (Table 4B) [µM],IC50 (Table 4C) [µM]
"CCCCNC(=O)Cn1nc(-c2ccc(OC(F)F)cc2)ccc1=O [II-17, N-butyl-2-(3-(4-(difluoromethoxy)phenyl)-6-oxopyridazin-1(6H)-yl)acetamide]",10 to 100,–
"O=C(Cn1nc(-c2ccc(OC(F)F)cc2)ccc1=O)NCC1CCC1 [II-18, N-(cyclobutylmethyl)-2-(3-(4-(difluoromethoxy)phenyl)-6-oxopyridazin-1(6H)-yl)acetamide]",10 to 100,–
"CCNC(=O)Cn1nc(-c2ccc(OC(F)F)cc2)c(C)cc1=O [II-19, 2-(3-(4-(difluoromethoxy)phenyl)-4-methyl-6-oxopyridazin-1(6H)-yl)-N-ethylacetamide]",10 to 100,–
"O=C(Cn1nc(-c2ccc(OCC(F)(F)F)cc2)ccc1=O)NCc1ccc(O)nc1 [II-20, N-((6-hydroxypyridin-3-yl)methyl)-2-(6-oxo-3-(4-(2,2,2-trifluoroethoxy)phenyl)pyridazin-1(6H)-yl)acetamide]",> 100,–
"CCNC(=O)Cn1nc(-c2ccc(OC(F)F)cc2)cc(C)c1=O [II-21, 2-(3-(4-(difluoromethoxy)phenyl)-5-methyl-6-oxopyridazin-1(6H)-yl)-N-ethylacetamide]",> 100,–
"O=C(Cn1nc(-c2ccc(OCC(F)(F)F)cc2)ccc1=O)N1CC(c2ccccc2)C1 [II-22, 2-(2-oxo-2-(3-phenylazetidin-1-yl)ethyl)-6-(4-(2,2,2-trifluoroethoxy)phenyl)pyridazin-3(2H)-one]",< 10,–
"O=C(Cn1nc(-c2ccc(OCC(F)(F)F)cc2)ccc1=O)N1CCC1c1ccccc1 (stereo not shown) [II-23, 2-(2-oxo-2-(2-phenylazetidin-1-yl)ethyl)-6-(4-(2,2,2-trifluoroethoxy)phenyl)pyridazin-3(2H)-one]",< 10,–
"O=C(Cn1nc(-c2ccc(OCC(F)(F)F)cc2)ccc1=O)NCc1ccc(CO)cc1 [II-24, N-(4-(hydroxymethyl)benzyl)-2-(6-oxo-3-(4-(2,2,2-trifluoroethoxy)phenyl)pyridazin-1(6H)-yl)acetamide]",> 100,–
"O=C(Cn1nc(-c2ccc(OCC(F)(F)F)cc2)ccc1=O)NCc1ccncc1Cl [II-25, N-((3-chloropyridin-4-yl)methyl)-2-(6-oxo-3-(4-(2,2,2-trifluoroethoxy)phenyl)pyridazin-1(6H)-yl)acetamide]",> 100,–
"O=C(Cn1nc(-c2ccc(OCC(F)(F)F)cc2)ccc1=O)NCc1ccc[nH]c1=O [II-26, N-((2-oxo-1,2-dihydropyridin-3-yl)methyl)-2-(6-oxo-3-(4-(2,2,2-trifluoroethoxy)phenyl)pyridazin-1(6H)-yl)acetamide]",10 to 100,–
"CCOc1ccc(-c2ccc(=O)n(CC(=O)NCc3ccccc3Cl)n2)cc1 [IIIa-1, N-(2-chlorobenzyl)-2-(3-(4-ethoxyphenyl)-6-oxopyridazin-1(6H)-yl)acetamide]",–,< 10
"CC(C)Oc1ccc(-c2ccc(=O)n(CC(=O)NCc3ccccc3Cl)n2)cc1 [IIIa-2, N-(2-chlorobenzyl)-2-(3-(4-isopropoxyphenyl)-6-oxopyridazin-1(6H)-yl)acetamide]",–,< 10
"CCNC(=O)Cn1nc(-c2ccc(OC)cc2)ccc1=O [IIIa-3, N-ethyl-2-(3-(4-methoxyphenyl)-6-oxopyridazin-1(6H)-yl)acetamide]",–,< 10
"COc1ccc(-c2ccc(=O)n(CC(=O)NCC3CCCCC3)n2)cc1 [IIIa-4, N-(cyclohexylmethyl)-2-(3-(4-methoxyphenyl)-6-oxopyridazin-1(6H)-yl)acetamide]",–,< 10
"COc1ccc(-c2ccc(=O)n(CC(=O)NCCc3ccccc3)n2)cc1 [IIIa-5, 2-(3-(4-methoxyphenyl)-6-oxopyridazin-1(6H)-yl)-N-phenethylacetamide]",–,< 10
"CCOc1ccc(-c2ccc(=O)n(CC(=O)NC(C)C)n2)cc1 [IIIa-6, 2-(3-(4-ethoxyphenyl)-6-oxopyridazin-1(6H)-yl)-N-isopropylacetamide]",–,< 10
"COc1ccc(-c2ccc(=O)n(CC(=O)NCc3cc(F)ccc3Cl)n2)cc1 [IIIa-7, N-(2-chloro-5-fluorobenzyl)-2-(3-(4-methoxyphenyl)-6-oxopyridazin-1(6H)-yl)acetamide]",–,< 10

# Continued, values first:
IC50 (Table 4B) [µM],IC50 (Table 4C) [µM],Compound
–,< 10,"COc1ccc(-c2ccc(=O)n(CC(=O)NCc3cccc(Cl)c3)n2)cc1 [IIIa-8, N-(3-chlorobenzyl)-2-(3-(4-methoxyphenyl)-6-oxopyridazin-1(6H)-yl)acetamide]"
–,< 10,"COc1ccc(-c2ccc(=O)n(CC(=O)NC(C)(C)c3ccccc3)n2)cc1 [IIIa-9, 2-(3-(4-methoxyphenyl)-6-oxopyridazin-1(6H)-yl)-N-(2-phenylpropan-2-yl)acetamide]"
–,< 10,"COc1ccc(-c2ccc(=O)n(CC(=O)NCc3cccc(C)c3)n2)cc1 [IIIa-10, 2-(3-(4-methoxyphenyl)-6-oxopyridazin-1(6H)-yl)-N-(3-methylbenzyl) acetamide]"
–,< 10,"COc1ccc(-c2ccc(=O)n(CC(=O)NCc3ccccc3C(F)(F)F)n2)cc1 [IIIa-11, 2-(3-(4-methoxyphenyl)-6-oxopyridazin-1(6H)-yl)-N-(2-(trifluoromethyl)benzyl)acetamide]"
–,< 10,"COc1ccc(-c2ccc(=O)n(CC(=O)NCc3ccc(Cl)cc3Cl)n2)cc1 [IIIa-12, N-(2,4-dichlorobenzyl)-2-(3-(4-methoxyphenyl)-6-oxopyridazin-1(6H)-yl)acetamide]"
–,< 10,"COc1ccc(-c2ccc(=O)n(CC(=O)NCc3ccccc3Cl)n2)c(F)c1 [IIIa-13, N-(2-chlorobenzyl)-2-(3-(2-fluoro-4-methoxyphenyl)-6-oxopyridazin-1(6H)-yl)acetamide]"
–,< 10,"COc1ccc(-c2ccc(=O)n(CC(=O)NCc3ccc(C)cc3)n2)cc1 [IIIa-15, 2-(3-(4-methoxyphenyl)-6-oxopyridazin-1(6H)-yl)-N-(4-methylbenzyl) acetamide]"
–,< 10,"COc1ccc(-c2ccc(=O)n(CC(=O)NCc3ccccc3C)n2)cc1 [IIIa-16, 2-(3-(4-methoxyphenyl)-6-oxopyridazin-1(6H)-yl)-N-(2-methylbenzyl) acetamide]"
–,< 10,"COc1ccc(-c2ccc(=O)n(CC(=O)NCc3ccc(Cl)cc3)n2)cc1 [IIIa-17, N-(4-chlorobenzyl)-2-(3-(4-methoxyphenyl)-6-oxopyridazin-1(6H)-yl)acetamide]"
–,< 10,"CCc1ccc(-c2ccc(=O)n(CC(=O)NCc3ccccc3Cl)n2)cc1 [IIIa-18, N-(2-chlorobenzyl)-2-(3-(4-ethylphenyl)-6-oxopyridazin-1(6H)-yl)acetamide]"
–,< 10,"CCNC(=O)Cn1nc(-c2ccc(C3CC3)cc2)ccc1=O [IIIa-19, 2-(3-(4-cyclopropylphenyl)-6-oxopyridazin-1(6H)-yl)-N-ethylacetamide]"
–,10 to 100,"COc1ccc(-c2ccc(=O)n(CC(=O)NC3(c4ccccc4Cl)CC3)n2)cc1 [IIIa-20, N-(1-(2-chlorophenyl)cyclopropyl)-2-(3-(4-methoxyphenyl)-6-oxopyridazin-1(6H)-yl)acetamide]"
–,10 to 100,"CNC(=O)Cn1nc(-c2ccc(OC)cc2)ccc1=O [IIIa-21, 2-(3-(4-methoxyphenyl)-6-oxopyridazin-1(6H)-yl)-N-methylacetamide]"
–,10 to 100,"COc1ccc(-c2ccc(=O)n(CC(=O)NCc3ccccc3Cl)n2)c(C)c1 [IIIa-22, N-(2-chlorobenzyl)-2-(3-(4-methoxy-2-methylphenyl)-6-oxopyridazin-1(6H)-yl)acetamide]"
–,10 to 100,"COc1ccc(-c2ccc(=O)n(CC(=O)NCc3ccccc3Cl)n2)cc1C [IIIa-23, N-(2-chlorobenzyl)-2-(3-(4-methoxy-3-methylphenyl)-6-oxopyridazin-1(6H)-yl)acetamide]"
–,10 to 100,"COc1ccc(-c2ccc(=O)n(CC(=O)NCc3ccccc3Cl)n2)cc1F [IIIa-24, N-(2-chlorobenzyl)-2-(3-(3-fluoro-4-methoxyphenyl)-6-oxopyridazin-1(6H)-yl)acetamide]"
–,10 to 100,"COc1ccc(-c2ccc(=O)n(CC(=O)NC(C)c3ccccc3Cl)n2)cc1 (stereo not shown) [IIIa-25, N-(1-(2-chlorophenyl)ethyl)-2-(3-(4-methoxyphenyl)-6-oxopyridazin-1(6H)-yl)acetamide]"
–,10 to 100,"COc1ccc(-c2ccc(=O)n(CC(=O)NCc3ccon3)n2)cc1 [IIIa-26, N-(isoxazol-3-ylmethyl)-2-(3-(4-methoxyphenyl)-6-oxopyridazin-1(6H)-yl)acetamide]"
–,10 to 100,"CCNC(=O)Cn1nc(-c2ccc(OCC3(F)COC3)cc2)ccc1=O [IIIa-27, N-ethyl-2-(3-(4-((3-fluorooxetan-3-yl)methoxy)phenyl)-6-oxopyridazin-1(6H)-yl)acetamide]"
–,> 100,"COc1ccc(-c2ccc(=O)n(CC(=O)NCc3cnccn3)n2)cc1 [IIIa-28, 2-(3-(4-methoxyphenyl)-6-oxopyridazin-1(6H)-yl)-N-(pyrazin-2-ylmethyl) acetamide]"
–,> 100,"COc1ccc(-c2ccc(=O)n(CC(=O)NCC3CCOCC3)n2)cc1 [IIIa-29, 2-(3-(4-methoxyphenyl)-6-oxopyridazin-1(6H)-yl)-N-((tetrahydro-2H-pyran-4-yl)methyl) acetamide]"
–,> 100,"COc1ccc(-c2ccc(=O)n(CC(=O)NCc3ccccn3)n2)cc1 [IIIa-30, 2-(3-(4-methoxyphenyl)-6-oxopyridazin-1(6H)-yl)-N-(pyridin-2-ylmethyl)acetamide]"
–,> 100,"COc1ccc(-c2ccc(=O)n(CC(=O)NCc3cnoc3)n2)cc1 [IIIa-31, N-(isoxazol-4-ylmethyl)-2-(3-(4-methoxyphenyl)-6-oxopyridazin-1(6H)-yl)acetamide]"
–,> 100,"COc1ccc(-c2ccc(=O)n(CC(=O)NCc3cnn(C)c3)n2)cc1 [IIIa-32, 2-(3-(4-methoxyphenyl)-6-oxopyridazin-1(6H)-yl)-N-((1-methyl-1H-pyrazol-4-yl)methyl) acetamide]"
–,> 100,"COc1ccc(-c2ccc(=O)n(CC(=O)NCc3nccn3C)n2)cc1 [IIIa-33, 2-(3-(4-methoxyphenyl)-6-oxopyridazin-1(6H)-yl)-N-((1-methyl-1H-imidazol-2-yl)methyl) acetamide]"
–,> 100,"COc1ccc(-c2ccc(=O)n(CC(=O)NCc3ccno3)n2)cc1 [IIIa-34, N-(isoxazol-5-ylmethyl)-2-(3-(4-methoxyphenyl)-6-oxopyridazin-1(6H)-yl)acetamide]"
